Data: paper PMC5923478 (Viruses, 2018)
Read-outs that look alike come from different tables or passages of the source.

Tests used:
ZIKV [1] = tested on: ZIKV; parameters: method as in ref 24 = [24]; conditions: depending on the cultivated cells used; cited from earlier work
in vitro [2] = assay: in vitro
in vitro [3] = conditions: pig
ZIKV [4] = assay: microbe, parasite or virus in culture; conditions: Zika virus, Vero, 48 h
Chikungunya virus = conditions: Vero cells or primary human fibroblasts; cited from earlier work
ZIKV [5] = tested on: ZIKV
ZIKV, WNV and TBEV = assay: organism not typed; assay type: cell-based
TBEV [6] = assay: microbe, parasite or virus in culture; conditions: Tick-borne encephalitis virus, Vero, 48 h
Vero cells = conditions: African green monkey; human
HCV = tested on: HCV; parameters: method as in ref 11 = [11]; conditions: Huh 7.5.1 cells, 15 µM, 24 h to 48 h; cited from earlier work
in vitro [7] = conditions: African green monkey
[8] = tested on: ZIKV surface E antigen expression; assay type: cell-based, Zika virus
WNV [9] = assay: microbe, parasite or virus in culture; conditions: West Nile virus, Vero, 48 h
[10] = tested on: Crimean-Congo hemorrhagic fever virus; conditions: cited from earlier work
TBEV [11] = tested on: TBEV
WNV [12] = tested on: WNV
[13] = tested on: WNV viral surface E antigen expression; assay type: cell-based, West Nile virus

CC(C)OC(=O)[C@H](C)N[P@](=O)(OC[C@H]1O[C@@H](n2ccc(=O)[nH]c2=O)[C@](C)(F)[C@@H]1O)Oc1ccccc1 [sofosbuvir]
activity against ZIKV infection (ZIKV [1]): differentially active

CCOC(=O)c1c(CSc2ccccc2)n(C)c2cc(Br)c(O)c(CN(C)C)c12.Cl.O [arbidol, ethyl-6-bromo-4-[(dimethylamino)methyl]-5-hydroxy-1-methyl-2-[(phenylthio)methyl]-indole-3-carboxylate hydrochloride monohydrate]
CC50 (in vitro [2]): 18.7 to 89.7 µM
CC50 (in vitro [2]; pig (PS), human (UKF-NB-4, HBCA)): 24.8 to 47 µM
CC50 (in vitro [3]): 46.8 ± 1.65 µM
EC50 (ZIKV [4]): 12.1 ± 0.77 µM
EC50 (Chikungunya virus): < 10 µg/mL
EC50 (ZIKV [5]): 10.6 ± 0.74 µM
ZIKV replication (ZIKV [5]): not inhibited
ZIKV viral replication (ZIKV [5]): inhibited completely
reduction in ZIKV titer compared to mock-treated cells (ZIKV [5]): about 10^4 fold
antiviral effects in virus infected cells (ZIKV, WNV and TBEV): no antiviral effects
viral titer in growth curves (ZIKV, WNV and TBEV): rapid reduction of viral titer
EC50 (ZIKV, WNV and TBEV; Vero, read-out: EC50 values, range over ZIKV, WNV and TBEV): 10.6 to 19.2 µM
EC50 (TBEV [6]): 18.67 ± 0.15 µM
cytotoxicity in Vero cells lower than in Huh-7 cells (Vero cells): about 5 times
inhibition of HCV replication (HCV): up to 10^3 fold
CC50 (in vitro [7]): 89.72 ± 0.19 µM
ZIKV surface E antigen expression (immunofluorescence staining) [8]: dose-dependent inhibition
EC50 (WNV [9]): 18.8 ± 0.21 µM
EC50 [10]: 2.8 µg/mL
SI (CC50/EC50) (TBEV [11]): 4.81
TBEV viral titer reduction compared with non-treated cells (TBEV [11]): 10^3 fold
inhibition of TBEV replication (TBEV [11]): incomplete
EC50 (WNV [12]): 19.2 ± 0.29 µM
antiviral effects against WNV (WNV [12]): little or no antiviral effects
WNV viral surface E antigen expression [13]: dose-dependent inhibition
